Measurements taken from PMC8298857, “Vanillin Activates Human Bitter Taste Receptors TAS2R14, TAS2R20, and TAS2R39” (Frontiers in Nutrition, 2021).

Key:
Test in all cases: FLIPR calcium imaging in transfected HEK293 PEAKrapid Gα[…]i/o44 cells, dose-response with mock control
Format in all cases: cell-based
TAS2R14 = biological target: T1, TAS2R14 (Homo sapiens, UniProt Q9NYV8)
T1 construct: TAS2R cDNA cloned 3′ of the first 45 amino acids of the rat somatostatin receptor 3
T1 sequence (Q9NYV8 1-317): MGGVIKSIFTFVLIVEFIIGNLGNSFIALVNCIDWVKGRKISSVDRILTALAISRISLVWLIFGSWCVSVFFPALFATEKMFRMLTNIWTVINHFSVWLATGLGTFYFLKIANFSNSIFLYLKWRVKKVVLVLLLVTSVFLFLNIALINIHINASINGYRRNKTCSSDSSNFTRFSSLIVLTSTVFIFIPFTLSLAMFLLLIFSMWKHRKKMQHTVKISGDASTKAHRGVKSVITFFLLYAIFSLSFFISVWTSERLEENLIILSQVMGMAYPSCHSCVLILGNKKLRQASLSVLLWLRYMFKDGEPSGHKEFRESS

TAS2R39 = biological target: T2, TAS2R39 (Homo sapiens, UniProt P59534)
T2 construct: TAS2R cDNA cloned 3′ of the first 45 amino acids of the rat somatostatin receptor 3
T2 sequence (P59534 1-338): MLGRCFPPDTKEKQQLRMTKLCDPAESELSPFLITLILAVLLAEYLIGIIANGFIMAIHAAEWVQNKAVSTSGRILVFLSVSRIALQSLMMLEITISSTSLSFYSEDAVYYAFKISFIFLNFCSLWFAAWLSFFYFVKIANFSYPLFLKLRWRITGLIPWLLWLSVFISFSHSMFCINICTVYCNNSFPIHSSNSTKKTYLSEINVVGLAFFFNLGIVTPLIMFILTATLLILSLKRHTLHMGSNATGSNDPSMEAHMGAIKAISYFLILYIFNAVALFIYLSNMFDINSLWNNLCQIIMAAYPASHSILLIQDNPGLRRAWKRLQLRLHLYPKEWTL

TAS2R20 = biological target: T3, TAS2R20 (Homo sapiens, UniProt P59543)
T3 construct: TAS2R cDNA cloned 3′ of the first 45 amino acids of the rat somatostatin receptor 3
T3 sequence (P59543 1-309): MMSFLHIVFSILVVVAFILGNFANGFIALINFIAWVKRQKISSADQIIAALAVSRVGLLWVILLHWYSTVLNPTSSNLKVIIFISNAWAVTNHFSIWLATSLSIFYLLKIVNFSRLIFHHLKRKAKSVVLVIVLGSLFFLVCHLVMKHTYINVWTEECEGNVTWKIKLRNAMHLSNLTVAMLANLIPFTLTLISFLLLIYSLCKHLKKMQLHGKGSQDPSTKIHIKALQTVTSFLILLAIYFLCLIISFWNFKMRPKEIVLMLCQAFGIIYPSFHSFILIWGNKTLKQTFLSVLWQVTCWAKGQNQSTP

Compound: COc1cc(C=O)ccc1O [vanillin, 4-hydroxy-3-methoxybenzaldehyde]
- EC50 (TAS2R14): 570 ± 110 µM
- EC50 (TAS2R39): 870 ± 190 µM
- EC50 (TAS2R20): 530 ± 90 µM
